From patent US11660319B2, “Compositions comprising bacterial strains” (priority 2017, dated 2023)

Legend:
BALBc mice = assay: Ex vivo gene expression in colon and ileum of mice fed with bacteria; design: species or system mouse
Description: Animals were allowed to habituate to their holding room for one week after arrival into the animal unit. They receive oral gavage (200 μL dose) of live biotherapeutics at a dose of 1×10^9 CFU for 6 consecutive days between 15:00 and 17:00. On day 7, the animals are decapitated, and tissues are harvested for experimentation. The in vitro results were compared with data from the ex vivo parallel analysis on the gut of mice fed with […] expression of TJP2 and occludin was quantified in the colon and ileum. […] Total RNA was extracted using the mirVanaTM miRNA Isolation kit (Ambion/Llife technologies, Paisley, UK) and DNase treated (Turbo DNA-free, Ambion/life technologies) according to the manufacturers recommendations. RNA was quantified using NanoDropTM spectrophotometer (Thermo Fisher Scientific Inc., Wilmington, Del., USA) according to the manufacturer's instructions. RNA quality was assessed using the Agilent Bioanalyzer (Agilent, Stockport, UK) according to the manufacturer's procedure and an RNA integrity number (RIN) was calculated. […] RNA was reverse transcribed to cDNA using the Applied Biosystems High Capacity cDNA kit (Applied Biosystems, Warrington, UK) according to manufacturer's instructions. Briefly, Multiscribe Reverse Transcriptase (50 U/μL) (1)(2)(1)(10) was added as part of RT master mix, incubated for 25° C. for 10 min, 37° C. for 2 h, 85° C. for 5 min and stored at 4° C. Quantitative PCR was carried out using probes (6 carboxy fluorescein-FAM) designed by Applied Biosystems to mouse specific targeted genes, while using β-actin as an endogenous control. Amplification reactions contained 1 μl cDNA, 5 μl of the 2× PCR Master mix (Roche), 900 nM of each primer and were brought to a total of 10 μl by the addition of RNase-free water. All reactions were performed in triplicate using 96-well plates on the LightCycler®480 System. Thermal cycling conditions were as recommended by the manufacturer (Roche) for 55 cycles. To check for amplicon contamination, each run contained no template controls in triplicate for each probe used. Cycle threshold (Ct) values were recorded. Data was normalized using β-actin and transformed using the 2-ΔΔCT method and presented as a fold change vs. control group.

NFκB promoter = NFκB promoter activation in Hek blue TLR4 cells (Quanti Blue); format: cell-based, human; conditions: 10% bacteria supernatant, 22 h
Description: Once grown the Human Hek blue cells were plated in 96 well plates at 25,000 cells/well in 4 replicates. One set of cells were treated with α-synuclein A53T (1 ug/mL) alone or with 10% of bacteria supernatant from MRX0029 for 22 h. The second set of cells were treated with LPS (10 ng/mL, from Salmonella enterica serotype Typhimurium, Sigma Aldrich, cat n. L6143) alone or with 10% of bacteria supernatant from MR029 for 22 h. The cells were subsequently spun down and 20 ul of the supernatant was mixed with 200 ul of Quanti Blue reagent (InvivoGen, cat n. rep-qb2), incubated for 2 h and absorbance read at 655 nm.

[1] = test system: SH-SY5Y neuroblastoma cells; assay: Neuroprotection / cell viability of neuroblastoma cells treated with MPP (CCK-8); format: cell-based, human
Description: Once grown the SH-SY5Y neuroblastoma cells were plated on 96-well plate at 11,000 cells/well and incubated for 2 days. The cells were then transferred to differentiation medium (which contains FBS at 1%) and 10 uM retinoic acid (Sigma Aldrich, cat. n. R2625-100MG). Differentiation medium was replaced every other day and cells were harvested at 7 day of differentiation. Cells were pre-treated with or without MPP (Sigma Aldrich, cat. n. D048-1G) for 8 hours. Subsequently, cells were treated with 10% bacterial supernatant and incubated overnight. Cell viability was measured by using CCK-8 reagent (Sigma Aldrich, Cell Counting Kit-8, cat. n. 96992-3000TESTS-F) and read at 450 nm wavelength.

HDAC = HDAC inhibition on whole HT-29 cells and HT-29 cell lysate; format: cell-based
Description: Bacterial culture and cell-free supernatant collection Pure cultures of bacteria were grown anaerobically in YCFA broth until they reached their stationary growth phase. Cultures were centrifuged at 5,000×g for 5 minutes and the cell-free supernatant (CFS) was filtered using a 0.2 μM filter (Millipore, UK). 1 mL aliquots of the CFS were stored at −80° C. until use. Sodium butyrate, hexanoic and valeric acid were obtained from Sigma Aldrich (UK) and suspensions were prepared in YCFA broth.
To investigate which metabolites were responsible for the strain-induced HDAC inhibition, different concentrations of hexanoic acid, valeric acid and sodium butyrate were measured for their HDAC inhibition on whole HT-29 cells and on HT-29 cell lysate.

SH-SY5Y cells = assay: MAP2 and β3-tubulin immunoblotting / confocal microscopy; format: cell-based, human; conditions: treated 24 h; actin loading control
Description: Cells were seeded onto 8-well chamber slides (Marienfeld Laboratory Glassware) at 5×10^4 cells/well overnight and were treated with 10% bacterial supernatant for 24 h. For differentiation, cells were treated with 10 nM RA for 5 days before treating with cell-free bacterial supernatant for 24 h. Afterwards, the cells were fixed with 4% paraformaldehyde in PBS for 20 minutes at room temperature (RT). Fixed cells were washed with PBS, and permeabilized with 1% Triton X-100 in PBS for 10 minutes. After washing with PBS, the slides were incubated with blocking buffer (4% BSA/PBS) for 1 h at RT before adding anti-MAP2 antibody or β3-tubulin (sc-74421 and sc-80005 respectively, Santa Cruz Biotechnology Inc) diluted in 1% BSA/PBS for 12 h at 4° C. They were then washed twice with PBS, followed by incubation with Alexa Flour 488 conjugated anti-mouse (Molecular Probes Inc) and Alexa Flour 594 conjugated Phalloidin (ab176757, Abcam) for 1 h at RT. […]
SH-SY5Y cells cultured under the indicated conditions described above, treated with MRx0005 and MRx0029 for 24 h and then lysed in RIPA buffer containing cocktail of protease inhibitors (Roche Diagnostics, UK). […] The blots were then incubated with the appropriate horseradish peroxidase (HRP)-conjugated secondary antibody, and proteins were detected by chemiluminescence detection kit (Pierce Biotechnology, Rockford, Ill.). […]

[2] = test system: HT29-mtx epithelial, mucin-producing cell monolayers; assay: IL-8 secretion of HT29-mtx monolayers; format: cell-based; conditions: bacterial supernatants 24 h; compared to untreated and YCFA-treated cells
Text: HT29-mtx epithelial, mucin-producing cell monolayers were used as an in vitro model to evaluate gut barrier disruption and immune stimulation following treatment with MRx0005 and MRx0029.

With Megasphaera massiliensis [MRx0029] the “expression tryptophan hydroxylase-1 (Tph1)” value (BALBc mice; colon) was “significantly increase”, the “TJP1 expression in colon” value (BALBc mice; colon region of the murine intestine) was “significantly up-regulate” and the “Occludin expression in colon” value (BALBc mice; colon region of the murine intestine, p=0.073) was “significantly up-regulate”. The “activation of the NFκB promoter by LPS” value (NFκB promoter; LPS 10 ng/mL) was “inhibited”, the “activation of the NFκB promoter by α-synuclein” value (NFκB promoter; α-synuclein A53T 1 ug/mL) was “not inhibited” and the proliferation of neurons ([1]; 10% bacterial supernatant, without MPP) was “increase”. For the same substance, the “cell viability of cells treated with MPP” value ([1]; MPP pre-treatment 8 hours, then 10% bacterial supernatant overnight, compared to MPP alone) was “rescued viability more than the positive control”, the “protection from MPP+ (cell viability)” value ([1]; RA-differentiated SHSY-5Y cells treated with MPP+) was “complete protection” and the mitochondria metabolic activity ([1]; RA-differentiated SHSY-5Y cells, per se (no MPP+)) was “increase”. For the same substance, the “HDAC inhibition, HT29 cell lysate” value (HDAC; HT-29 cell lysate) was “strong HDAC inhibition”, the “HDAC inhibition, HT29 whole cell” value (HDAC; whole HT-29 cells) was “strong HDAC inhibition” and the “level expression of MAP2 (immunoblot)” value (SH-SY5Y cells) was “increase”. For the same substance, the “secretion of IL-8” value [2] was “even lower secretion”.
